{
  "source": "patent US9278058B2",
  "about": "“Melanin production inhibitor” (Shiseido Company, Ltd., priority 2012, dated 2016)",
  "key": {"Mouse B16 melanoma cells [1]": {"tested_on": "Mouse B16 melanoma cells", "assay": "Cell proliferation test (alamar blue)", "type": "cell-based", "settings": "for No. of Cells (%): 3 days, solvent-only group = 100", "experimental": "As will be described in detail in the subsequent examples, screening for aromatic components of the melanin formation inhibitor was carried out by allowing various candidate aromatics to act on B16 melanoma, and evaluating cytotoxicity and the ratio of the amount of melanin (%) in comparison with a control (addition of solvent only). Mouse B16 melanoma cells were disseminated in a 6-well plate at 100,000 cells/well. On the following day, a test substance solution (solvent: ethyl alcohol) was added and used in a cell proliferation test and melanin formation inhibition test. A nature identical synthetic aromatic in the form of phenylethyl cinnamate (Toyotama International Inc.) was used for the test substance, and it was used in the tests indicated below. After aspirating off the medium 3 days after adding the test substance solution, 1 ml of EMEM medium containing 10% alamar blue solution was added and allowed to react at 37° C. 30 minutes later, 100 μl were transferred to a […] followed by measurement of fluorescence at an excitation wavelength of 544 nm and measurement wavelength of 590 nm. The ratio of the number of cells (% number of cells) of a test substance addition group based on a value of 100 for a test substance non-addition group (addition of solvent only) was calculated by using that value as a relative value of the number of viable cells. A higher value for % number of cells means a lower level of cytotoxicity."}, "Mouse B16 melanoma cells [2]": {"tested_on": "Mouse B16 melanoma cells", "assay": "Melanin formation inhibition test", "type": "cell-based", "settings": "for Ratio of Amount of Melanin (%): 3 days, solvent-only group = 100", "experimental": "As will be described in detail in the subsequent examples, screening for aromatic components of the melanin formation inhibitor was carried out by allowing various candidate aromatics to act on B16 melanoma, and evaluating cytotoxicity and the ratio of the amount of melanin (%) in comparison with a control (addition of solvent only). Mouse B16 melanoma cells were disseminated in a 6-well plate at 100,000 cells/well. On the following day, a test substance solution (solvent: ethyl alcohol) was added and used in a cell proliferation test and melanin formation inhibition test. A nature identical synthetic aromatic in the form of phenylethyl cinnamate (Toyotama International Inc.) was used for the test substance, and it was used in the tests indicated below. The medium was aspirated off 3 days after addition of test substance, and after washing using a buffer (50 mM phosphate buffer, pH 6.8), 1 M NaOH solution was added to lyse the cells followed by measurement of absorbance at 475 nm. The ratio of the amount of melanin (%) of a test substance addition group based on a value of 100 for a test substance non-addition group (addition of solvent only) was calculated using that value as a relative value of the amount of melanin. A lower value for the ratio of the amount of melanin means higher melanin formation inhibitory effects."}, "[3]": {"settings": "test substance final concentration 1 ppm"}, "[4]": {"settings": "test substance final concentration 2 ppm"}},
  "data": [
    {"compound": "O=C(/C=C/c1ccccc1)OCCc1ccccc1", "note": "[Phenylethyl Cinnamate, 2-Phenylethyl 3-phenyl • propenoate]", "values": [
      {"measurement": "cytotoxicity (in words)", "setting": "Mouse B16 melanoma cells [1]; summary of Table 1 results", "value": "hardly any cytotoxicity"},
      {"measurement": "No. of Cells (%)", "setting": "Mouse B16 melanoma cells [1]; [3]", "value": 94, "unit": "%"},
      {"measurement": "No. of Cells (%)", "setting": "Mouse B16 melanoma cells [1]; [4]", "value": 92, "unit": "%"},
      {"measurement": "melanin formation inhibitory effects (in words)", "setting": "Mouse B16 melanoma cells [2]; summary of Table 1 results", "value": "superior melanin formation inhibitory effects"},
      {"measurement": "Ratio of Amount of Melanin (%)", "setting": "Mouse B16 melanoma cells [2]; [3]", "value": 82, "unit": "%"},
      {"measurement": "Ratio of Amount of Melanin (%)", "setting": "Mouse B16 melanoma cells [2]; [4]", "value": 74, "unit": "%"}
    ]}
  ]
}
